The record followed here is patent US10294202B2, “Pyrrolidinones as herbicides” (FMC Corporation, priority 2013, dated 2019).

Test [1] deals with chamomile. Put plainly: Test D pre-/postemergence herbicide test. Particulars: for Plant response rating: Chamomile, scale 0 to 100; for Plant response rating, Chamomile: scale 0 to 100 (0 no effect, 100 complete control). The format is in vivo, Matricaria inodora. The text has this: Seeds of plant species selected from bluegrass (annual bluegrass, Poa annua), blackgrass (Alopecurus myosuroides), canarygrass (littleseed canarygrass, Phalaris minor), chickweed (common chickweed, Stellaria media), galium (catchweed bedstraw, Galium aparine), bromegrass, downy (downy bromegrass, Bromus tectorum), field poppy (Papaver rhoeas), field violet (Viola arvensis), foxtail, green (green foxtail, Setaria viridis), deadnettle (henbit deadnettle, Lamium amplexicaule), ryegrass, Italian (Italian ryegrass, Lolium multiflorum), kochia (Kochia scoparia), lambsquarters (Chenopodium album), oilseed rape (Brassica napus), pigweed (Amaranthus retroflexus), chamomile (scentless chamomile, Matricaria inodora), Russian thistle (Salsola kali), speedwell (bird's-eye speedwell, Veronica persica), barley, spring (spring barley, Hordeum vulgare), wheat, spring (spring wheat, Triticum aestivum), buckwheat, wild (wild buckwheat, Polygonum convolvulus), mustard, wild (wild mustard, Sinapis arvensis), oat, wild (wild oat, Avena fatua), radish, wild (wild radish, Raphanus raphanistrum), […]), barley, winter (winter barley, Hordeum vulgare), and wheat, winter (winter wheat, Triticum aestivum) were planted into a silt loam soil and treated preemergence with test chemicals formulated in a non-phytotoxic solvent mixture which included a surfactant. At the same time, these species were planted in pots containing Redi-Earth® planting medium (Scotts Company, 14111 Scottslawn Road, Marysville, Ohio 43041) comprising spaghnum peat moss, vermiculite, wetting agent and starter nutrients and treated with postemergence applications of the test chemicals formulated in the same manner. Plants ranged in height from 2 to 18 cm (1- to 4-leaf stage). Treated plants and controls were maintained in a controlled growth environment for 7 to 21 days after which time all species were compared to controls and visually evaluated. Plant response ratings, summarized in Table D, are based on a scale of 0 to 100 where 0 is no effect and 100 is complete control. A dash (-) response means no test result.

The test system of test [2] is sprangletop, Brdd. Put plainly: Test F flood (paddy) test. The format is in vivo, Leptochloa fascicularis. Particulars: 21 d, scale 0-100. The text has this: Three plastic pots (ca. 16-cm diameter) per rate were partially filled with sterilized Tama silt loam soil comprising a 35:50:15 ratio of sand, silt and clay and 2.6% organic matter. Separate plantings for each of the three pots were as follows. Seeds from the U.S. of monochoria (Monochoria vaginalis), sedge, umbrella (small-flower umbrella sedge, Cyperus difformis), bulrush, […] bulrush, Scirpus juncoides), and […] (purple […] coccinea), were planted into one 16-cm pot for each rate. Seeds from the U.S. of flatsedge, rice (rice flatsedge, Cyperus iria), sprangletop, Brdd. (bearded sprangletop, Leptochloa fascicularis), one stand of 9 or 10 water seeded rice seedlings (Rice, W.S. Jap, Oryza sativa cv. 'Japonica-[…]' or Rice, W.S. Ind, 'Indica'), and two stands of 3 or 4 seedlings of rice, transplanted (transplanted rice, Oryza sativa cv. 'Japonica-[…]') were planted into one 16-cm pot for each rate. Seeds from the U.S. of barnyardgrass (Echinochloa crus-galli), […] (common […], Alisma plantago-aquatica), and watergrass, late (late watergrass, Echinochloa oryzicola) were planted into one 16-cm pot for each rate. Plantings were sequential so that crop and weed species were at the 2.0 to 2.5-leaf stage at time of treatment. Potted plants were grown in a greenhouse with day/night temperature settings of 30/27° C., and supplemental balanced lighting was provided to maintain a 16-h photoperiod. Test pots were maintained in the greenhouse until test completion. At time of treatment, test pots were flooded to 3 cm above the soil surface, treated by application of test compounds directly to the paddy water, and then maintained at that water depth for the duration of the test. Effects of treatments on rice and weeds were visually evaluated by comparison to untreated controls after 21 d. Plant response ratings, summarized in Table F, are based on a scale of 0 to 100 where 0 is no effect and 100 is complete control. A dash (-) response means no test result.

In test [3] the test system is crabgrass, Brazil. Put plainly: Test E preemergence herbicide test. More on the design: key: 0 = no effect, 100 = complete control. The format is in vivo, Digitaria horizontalis. From the text: (§1) Seeds of plant species selected from corn (Zea mays), soybean (Glycine max), velvetleaf (Abutilon theophrasti), lambsquarters (Chenopodium album), wild poinsettia (Euphorbia heterophylla), pigweed, palmer (palmer pigweed, Amaranthus palmeri), waterhemp (common waterhemp, Amaranthus rudis), surinam grass (Brachiaria decumbens), crabgrass, large (large crabgrass, Digitaria sanguinalis), crabgrass, Brazil (Brazilian crabgrass, Digitaria horizontalis), panicum, fall (fall panicum, Panicum dichotomiflorum), foxtail, giant (giant foxtail, Setaria faberii), foxtail, green (green foxtail, Setaria viridis), goosegrass (Eleusine indica), johnsongrass (Sorghum halepense), ragweed (common ragweed, Ambrosia elatior), barnyardgrass (Echinochloa crus-galli), sandbur (southern sandbur, Cenchrus echinatus), arrowleaf […] rhombifolia), ryegrass, Italian (Italian ryegrass, Lolium multiflorum), dayflower, VA (Virginia dayflower, Commelina virginica), field bindweed (Convolvulus arvensis), morningglory (Ipomoea coccinea), nightshade (eastern black nightshade, Solanum ptycanthum), kochia (Kochia scoparia), nutsedge, yellow (yellow nutsedge, Cyperus esculentus), cocklebur (common cocklebur, Xanthium strumarium), smartweed (ladysthumb smartweed, Polygonum Persicaria) and beggarticks (hairy beggarticks, Bidens pilosa), were planted into a silt loam soil and treated preemergence with test chemicals formulated in a non-phytotoxic solvent mixture which included a surfactant. Treated plants and controls were maintained in a greenhouse for 21 days, after which time all species were compared to controls and visually evaluated. Plant response ratings, summarized in Table E, are based on a scale of 0 to 100 where 0 is no effect and 100 is complete control. A dash (-) response means no test result.

In test [4] the test system is goosegrass. The experiment in a line: Test E preemergence herbicide test. The class given is in vivo, Eleusine indica. More on the design: key: 0 = no effect, 100 = complete control.
Description: as §1

The subject of test [5] is sandbur. Put plainly: Test E preemergence herbicide test. The format is in vivo, Cenchrus echinatus. Also on record: key: 0 = no effect, 100 = complete control.
Description: as §1

Consider `O=C1NCC(c2ccc(F)c(F)c2)C1C(=O)Nc1ccccc1C(F)(F)F` (racemic) [Compound 6], for which the Plant response rating in test [1] (Postemergence, 16 g ai/ha) worked out at 0; in test [1] (Postemergence, 31 g ai/ha) it was 0; in test [1] (Postemergence, 62 g ai/ha), 0; in test [1] (Postemergence, 125 g ai/ha), 0; in test [1] (Postemergence, 250 g ai/ha), 0; in test [1] (Preemergence, 125 g ai/ha), 70. This compound had a Plant response rating in test [1] (Preemergence, 250 g ai/ha) of 90. Also, the “Plant response rating, Chamomile” value in test [1] (Preemergence, 62 g ai/ha) is given as 30; in test [1] (Preemergence, 16 g ai/ha), 0; in test [1] (Preemergence, 31 g ai/ha) it was 0.

Regarding `O=C1NCC(c2ccc(F)c(F)c2)C1C(=O)Nc1cccc(F)c1F` (racemic) [Compound 101], the “Plant response rating, Sprangletop, Brdd.” value in test [2] (64 g ai/ha) is reported as 75; in test [2] (125 g ai/ha), 85; in test [2] (250 g ai/ha) it was 95; in test [2] (500 g ai/ha), 95.

Regarding `O=C1NCC(c2cccc(C(F)F)c2)C1C(=O)Nc1ccccc1F` (racemic) [Compound 210], the “Plant response rating, Sprangletop, Brdd.” value in test [2] (125 g ai/ha), in test [2] (250 g ai/ha) and in test [2] (500 g ai/ha) was 100 throughout.

Consider `O=C1NCCC1C(=O)N(c1ccc(F)c(F)c1)c1ccccc1F` (centres unmarked) [Compound 5, N-(3,4-difluorophenyl)-N-(2-fluorophenyl)-2-oxo-3-pyrrolidinecarboxamide], for which the “Plant response rating, Sprangletop, Brdd.” value came to 85 in test [2] (125 g ai/ha); 85 in test [2] (250 g ai/ha); 85 in test [2] (500 g ai/ha); 85 in test [2] (1000 g ai/ha); 90 in test [2] (2000 g ai/ha).

As to `O=C1NCC(c2ccc(F)c(F)c2)C1C(=O)Nc1cccc(F)c1F` (centres unmarked) [Compound 17, N-(2,3-difluorophenyl)-4-(3,4-difluorophenyl)-2-oxo-3-pyrrolidinecarboxamide], the Plant response rating in test [1] (Postemergence, 16 g ai/ha) was determined as 0; in test [1] (Postemergence, 31 g ai/ha), 0; in test [1] (Postemergence, 62 g ai/ha) it was 0; in test [1] (Postemergence, 125 g ai/ha), 0; in test [1] (Postemergence, 250 g ai/ha) it was 0. The “Plant response rating, Crabgrass, Brazil” value is 40 in test [3] (16 g ai/ha); 65 in test [3] (31 g ai/ha); 95 in test [3] (62 g ai/ha); 95 in test [3] (125 g ai/ha); 98 in test [3] (250 g ai/ha). Besides, the “Plant response rating, Goosegrass” value came out at 0 in test [4] (16 g ai/ha); 0 in test [4] (31 g ai/ha); 0 in test [4] (62 g ai/ha); 0 in test [4] (125 g ai/ha); 35 in test [4] (250 g ai/ha). Besides, the “Plant response rating, Sandbur” value amounted to 0 in test [5] (16 g ai/ha); 0 in test [5] (31 g ai/ha); 50 in test [5] (62 g ai/ha); 65 in test [5] (125 g ai/ha); 95 in test [5] (250 g ai/ha). The “Plant response rating, Sprangletop, Brdd.” value in test [2] (125 g ai/ha) worked out at 85; in test [2] (250 g ai/ha) it was 85; in test [2] (500 g ai/ha), 85; in test [2] (1000 g ai/ha), 85; in test [2] (2000 g ai/ha) it was 100.

In the case of `O=C1NCC(c2cc(F)c(F)cc2F)C1C(=O)Nc1cccc(F)c1F` (centres unmarked) [Compound 50], the Plant response rating in test [1] (Postemergence, 16 g ai/ha) is reported as 0; in test [1] (Postemergence, 31 g ai/ha), 0; in test [1] (Postemergence, 62 g ai/ha) it was 0; in test [1] (Postemergence, 125 g ai/ha), 0; in test [1] (Preemergence, 125 g ai/ha), 5. Also, the “Plant response rating, Chamomile” value in test [1] (Preemergence, 62 g ai/ha) was determined as 0; in test [1] (Preemergence, 16 g ai/ha), 0; in test [1] (Preemergence, 31 g ai/ha), 0.

Turning to `O=C1NCC(c2ccc(Cl)c(F)c2)C1C(=O)Nc1cccc(F)c1F` (centres unmarked) [Compound 52], the Plant response rating in test [1] (Postemergence, 16 g ai/ha) is listed as 0; in test [1] (Postemergence, 31 g ai/ha) it was 0; in test [1] (Postemergence, 62 g ai/ha), 0; in test [1] (Postemergence, 125 g ai/ha), 20; in test [1] (Postemergence, 250 g ai/ha), 20; in test [1] (Preemergence, 125 g ai/ha), 75. This compound displayed a Plant response rating in test [1] (Preemergence, 250 g ai/ha) of 80. Besides, the “Plant response rating, Chamomile” value in test [1] (Preemergence, 62 g ai/ha) is recorded as 75; in test [1] (Preemergence, 16 g ai/ha) it was 20; in test [1] (Preemergence, 31 g ai/ha), 20.

With `O=C1NCC(c2ccc(C(F)(F)F)cc2)C1C(=O)Nc1ccccc1F` (centres unmarked) [Compound 231], the Plant response rating in test [1] (Postemergence, 31 g ai/ha) is reported as 20; in test [1] (Postemergence, 62 g ai/ha), 25; in test [1] (Postemergence, 125 g ai/ha), 50; in test [1] (Postemergence, 250 g ai/ha) it was 50; in test [1] (Preemergence, 250 g ai/ha), 100. Moreover, the “Plant response rating, Chamomile” value in test [1] (Preemergence, 62 g ai/ha) is on record as 75; in test [1] (Preemergence, 125 g ai/ha), 80; in test [1] (Preemergence, 31 g ai/ha) it was 75.

On to `CN1CC(c2ccc(F)c(F)c2)C(C(=O)Nc2cccc(F)c2F)C1=O` (centres unmarked) [Compound 303], for which the “Plant response rating, Sprangletop, Brdd.” value was determined as 70 in test [2] (62 g ai/ha), 80 in test [2] (125 g ai/ha), 85 in test [2] (250 g ai/ha) and 90 in test [2] (500 g ai/ha).
